For one molecule, dopamine secretion results are on record in patent publication US12478602B2, “Method for treating a disorder” (priority 2023, dated 2025).

The assay relates to dopamine neurons in the midbrain VTA region. Nature of the assay: Patch clamp of spontaneous action potential (dopamine secretion normalization). It is filed as in vivo, mouse. The note with it: 250 mg/kg to 500 mg/kg. The procedure:
A mouse model of autism spectrum disorder was created with the method described in Example 1.1. The 3-week-old male mice having autism spectrum disorder were divided into a group (n=6) orally injected with 250 mg/kg of AST-001 for 2 weeks and a group (n=6) orally injected with 500 mg/kg of AST-001 for 2 weeks, and were orally administered with AST-001. The 3-week-old male normal mouse group and the autism spectrum disorder mouse group (n=6) were orally administered with water once a day for 2 weeks and then used as a control group (n=6) in the behavioral experiment. The spontaneous action potential of dopamine neurons in the midbrain VTA region of the 5-week-old normal mice and the 5-week-old mice having autism spectrum disorder was checked with a patch clamp. It turned out that mice having autism spectrum disorder show a reduced firing rate of the spontaneous action potential as compared with the normal mice (see FIG. 3A). As a result, dopamine secretion has been reduced in a mouse having autism spectrum disorder, and it can be seen that the reduced dopamine secretion has caused behavioral abnormalities related to the dopamine pathway, such as attention, reward, and cognition.
For orientation: In patch-clamp work, channel activity is measured electrically.

Regarding `N[C@@H](CO)C(=O)O` [AST-001, L-serine], the dopamine secretion entry is reported as “increases”.
